Test: Standing of the crystalline form at room temperature (polymorph stability)
Assay type: physicochemical
Details: standing at the condition of room temperature for one week; monohydrochloride

| SMILES | stability of the crystalline form (polymorphic conversion) |
| --- | --- |
| CCCn1cc(C)c2c(=O)[nH]c(-c3cc(S(=O)(=O)N4CCN(CC)CC4)ccc3OCC)nc21.Cl [A-type polymorphic substance of yonkenafil hydrochloride] [2-[2-ethoxy-5-(4-ethylpiperazine-1-sulfonyl)phenyl]-5-methyl-7-n-propyl-3,7-dihydropyrrolo[2,3-d]pyrimidin-4-one monohydrochloride] | more stable than the B-type polymorphic substance of yonkenafil hydrochloride |
| CCCn1cc(C)c2c(=O)[nH]c(-c3cc(S(=O)(=O)N4CCN(CC)CC4)ccc3OCC)nc21.Cl [B-type polymorphic substance of yonkenafil hydrochloride] [2-[2-ethoxy-5-(4-ethylpiperazine-1-sulfonyl)phenyl]-5-methyl-7-n-propyl-3,7-dihydropyrrolo[2,3-d]pyrimidin-4-one monohydrochloride] | can be converted into the A-type polymorphic substance of yonkenafil hydrochloride |

Reference: US20170349592A1, “POLYMORPHIC SUBSTANCE OF YONKENAFIL HYDROCHLORIDE, PREPARATION METHOD THEREFOR, AND COMPOSITION AND USE THEREOF” (Yangtze River Pharmaceutical Group Co., Ltd., priority 2014, published 2017)
